pIC50, pKi: −log10 of the molar value.
Tests used:
[1] = system: HCT-116; assay: Antiproliferative activity against MTAP-deleted human HCT-116 cells assessed as effect on cell viability incubated for 6 days by Celltiter-Glo luminescent cell viability assay; type: functional, cell-based; conditions: HCT-116, 144 h
[2] = Metabolic stability in mouse liver microsomes assessed as intrinsic clearance at 0.5 uM incubated for 40 mins in presence of NADPH; type: ADME, Microsome; conditions: read-out: CLH
[3] = Metabolic stability in human liver microsomes assessed as intrinsic clearance at 0.5 uM incubated for 40 mins in presence of NADPH; type: ADME, Microsome; conditions: read-out: CLH
[4] = target: CYP3A4 (Homo sapiens, UniProt P08684); assay: in vitro; conditions: human liver microsomes, probe midazolam
Sequence of CYP3A4 (P08684 whole entry): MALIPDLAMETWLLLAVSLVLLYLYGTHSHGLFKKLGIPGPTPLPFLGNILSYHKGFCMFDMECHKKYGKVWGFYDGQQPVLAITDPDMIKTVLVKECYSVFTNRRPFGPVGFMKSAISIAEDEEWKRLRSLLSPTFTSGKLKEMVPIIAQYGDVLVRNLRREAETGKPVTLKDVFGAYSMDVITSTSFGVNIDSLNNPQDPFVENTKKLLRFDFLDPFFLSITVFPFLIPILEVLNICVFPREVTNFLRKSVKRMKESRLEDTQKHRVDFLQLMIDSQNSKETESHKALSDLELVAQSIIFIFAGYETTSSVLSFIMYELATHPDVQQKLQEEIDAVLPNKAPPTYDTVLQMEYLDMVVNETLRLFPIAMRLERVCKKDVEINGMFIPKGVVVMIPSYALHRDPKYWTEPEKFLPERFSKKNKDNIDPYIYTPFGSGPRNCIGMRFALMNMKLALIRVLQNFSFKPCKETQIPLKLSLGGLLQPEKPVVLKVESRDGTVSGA

[5] = target: PRMT5/MEP50 complex (Homo sapiens, UniProt O14744)
Sequence of PRMT5/MEP50 complex (O14744 whole entry): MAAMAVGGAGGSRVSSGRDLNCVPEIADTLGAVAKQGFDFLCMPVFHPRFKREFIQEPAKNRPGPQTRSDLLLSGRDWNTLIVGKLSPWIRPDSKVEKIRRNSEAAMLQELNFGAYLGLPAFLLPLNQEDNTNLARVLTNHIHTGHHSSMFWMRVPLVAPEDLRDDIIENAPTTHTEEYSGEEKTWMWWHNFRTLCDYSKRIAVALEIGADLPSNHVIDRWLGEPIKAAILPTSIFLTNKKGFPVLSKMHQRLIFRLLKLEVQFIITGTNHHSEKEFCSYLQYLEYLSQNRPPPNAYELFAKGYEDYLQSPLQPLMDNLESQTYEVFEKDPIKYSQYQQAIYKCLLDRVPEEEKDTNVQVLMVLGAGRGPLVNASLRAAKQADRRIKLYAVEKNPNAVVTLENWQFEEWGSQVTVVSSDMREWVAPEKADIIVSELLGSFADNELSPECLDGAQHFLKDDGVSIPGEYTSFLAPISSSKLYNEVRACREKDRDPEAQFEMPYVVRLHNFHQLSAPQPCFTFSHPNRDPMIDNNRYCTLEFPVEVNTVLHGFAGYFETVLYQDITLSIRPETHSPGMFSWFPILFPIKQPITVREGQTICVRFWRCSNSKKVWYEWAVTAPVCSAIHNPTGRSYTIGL
Sequence of PRMT5/MEP50 complex (Q9BQA1 whole entry, further chain): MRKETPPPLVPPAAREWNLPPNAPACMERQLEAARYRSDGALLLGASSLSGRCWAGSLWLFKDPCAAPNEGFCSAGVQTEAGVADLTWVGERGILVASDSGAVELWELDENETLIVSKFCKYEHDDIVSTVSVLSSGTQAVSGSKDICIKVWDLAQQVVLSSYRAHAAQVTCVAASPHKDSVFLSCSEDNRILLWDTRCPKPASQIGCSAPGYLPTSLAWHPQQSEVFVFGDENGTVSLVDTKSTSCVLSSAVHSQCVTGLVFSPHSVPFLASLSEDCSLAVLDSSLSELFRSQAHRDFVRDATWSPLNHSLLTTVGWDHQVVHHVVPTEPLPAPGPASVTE
Description: Inhibition of PRMT5/MEP50 (unknown origin) preincubated with compound for 24 hrs in presence of SAM and MTA followed by Histone H4 (1-21)-Lys(Biotin) peptide addition and measured after 2 hrs by MTase-Glo reagent based assay

[6] = system: HCT-116; assay: Antiproliferative activity against human HCT-116 cells harboring wildtype MTAP assessed as effect on cell viability incubated for 6 days by Celltiter-Glo luminescent cell viability assay; type: functional, cell-based; conditions: HCT-116, 144 h
[7] = target: T1, Nuclear receptor subfamily 1 group I member 2 (Homo sapiens, UniProt O75469); assay: Activation of human PXR in human HepG2 cells co-transfected with CYP3A4-luciferase at 10 uM incubated for 1 day relative to control; conditions: hepg2, 24 h
T1 sequence (O75469 whole entry): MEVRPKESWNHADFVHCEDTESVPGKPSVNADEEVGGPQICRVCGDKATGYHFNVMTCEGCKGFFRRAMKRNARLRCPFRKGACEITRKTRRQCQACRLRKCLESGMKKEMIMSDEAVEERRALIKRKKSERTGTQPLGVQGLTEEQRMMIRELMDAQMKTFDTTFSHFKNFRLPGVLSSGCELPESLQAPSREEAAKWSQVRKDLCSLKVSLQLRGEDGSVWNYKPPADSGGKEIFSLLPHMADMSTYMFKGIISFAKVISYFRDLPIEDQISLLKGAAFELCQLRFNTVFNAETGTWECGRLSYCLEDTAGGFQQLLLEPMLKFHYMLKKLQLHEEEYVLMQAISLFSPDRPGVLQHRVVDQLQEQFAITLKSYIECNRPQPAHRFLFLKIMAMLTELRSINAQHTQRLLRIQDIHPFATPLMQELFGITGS

[8] = system: human MDR1 (P-gp); assay: Efflux ratio of permeability across basolateral to apical side over apical to basolateral side in MDCK cells transfected with human MDR1 in absence of elacridar; conditions: dog

SMILES | pIC50 [1] | microsomal CLint at 0.5 µM [2] | microsomal CLint at 0.5 µM [3] | inhibition at 30 min, 10 µM [4] | pKi [5] | pIC50 [6] | Activity [7] | efflux ratio [8]
Nc1nc2ccc(C(=O)N3CCOCC3c3ccc(C(F)(F)F)cn3)cc2c2c1COC2 (racemic) | 6.09 | 45 µL/min/mg | 37 µL/min/mg | < 20% | 10.00 | 4.84 | < 20% | –
Nc1nc2ccc(C(=O)N3CCOC[C@H]3c3ccc(C(F)(F)F)cn3)cc2c2c1COC2 | 4.81 | 52 µL/min/mg | 61 µL/min/mg | < 20% | 6.74 | < 4.30 | < 20% | –
C[C@H](c1ncccn1)N(Cc1ccc(C(F)(F)F)cn1)C(=O)c1ccc2nc(N)c3c(c2c1)CCC3 | 7.85 | 563 µL/min/mg | 274 µL/min/mg | 8% | > 10.00 | 6.89 | 73% | 85
C[C@H](c1ncccn1)N(Cc1ccc(C(F)(F)F)cn1)C(=O)c1ccc2nc(N)c(Cl)cc2c1 | 6.46 | 105 µL/min/mg | < 14 µL/min/mg | 25% | 9.70 | 5.29 | 46% | 9
Nc1nc2cnc(C(=O)N3CCC(F)(F)C[C@@H]3c3ccc(C(F)(F)F)cc3)cc2c2c1COC2 | 5.96 | 87 µL/min/mg | 50 µL/min/mg | < 20% | 9.40 | 4.79 | < 20% | 5
Cc1cc2cc(C(=O)N(Cc3ccc(C(F)(F)F)cn3)[C@H](C)c3ncccn3)cnc2nc1N | 6.56 | 14 µL/min/mg | 14 µL/min/mg | 70% | 10.00 | 5.46 | 6% | 63
Cc1cc2cc(C(=O)N(Cc3ccc(C(F)(F)F)cn3)[C@H](C)c3ncccn3)ncc2nc1N | 6.39 | 46 µL/min/mg | 14 µL/min/mg | 31% | 10.00 | 5.10 | 11% | 29
Nc1nc2ccc(C(=O)N3CCOC[C@@H]3c3ccc(Cl)cc3)cc2c2c1COC2 | 6.40 | 121 µL/min/mg | 42 µL/min/mg | < 20% | > 10.00 | 5.08 | < 20% | 8
Nc1nc2ccc(C(=O)N3CCCC3c3ccc(C(F)(F)F)cn3)cc2c2c1COC2 (centres undefined) | < 4.30 | 72 µL/min/mg | 57 µL/min/mg | < 20% | 6.74 | < 4.30 | < 20% | –
Nc1nc2ncc(C(=O)N3CCOCC3c3ccc(C(F)(F)F)cc3)cc2c2c1COC2 (centres undefined) | 5.35 | 26 µL/min/mg | 17 µL/min/mg | < 20% | 7.98 | < 5.00 | < 20% | 69
CC(=O)N1CCC(Nc2cc(C(=O)NC[C@H](O)CN3CCc4ccccc4C3)ncn2)CC1 [PEMRAMETOSTAT] | 7.13 | – | – | – | – | 7.17 | – | –

From ChEMBL document CHEMBL6109134, “Discovery of AMG 193, an MTA-Cooperative PRMT5 Inhibitor for the Treatment of MTAP-Deleted Cancers” (J Med Chem, 2025)
